Molecular target: T1, human NK3 receptor (Homo sapiens, UniProt P29371)
T1 construct: expressed in transfected cells; host or cells: HEK293 cells (transient expression), membranes
T1 sequence (P29371 1-465): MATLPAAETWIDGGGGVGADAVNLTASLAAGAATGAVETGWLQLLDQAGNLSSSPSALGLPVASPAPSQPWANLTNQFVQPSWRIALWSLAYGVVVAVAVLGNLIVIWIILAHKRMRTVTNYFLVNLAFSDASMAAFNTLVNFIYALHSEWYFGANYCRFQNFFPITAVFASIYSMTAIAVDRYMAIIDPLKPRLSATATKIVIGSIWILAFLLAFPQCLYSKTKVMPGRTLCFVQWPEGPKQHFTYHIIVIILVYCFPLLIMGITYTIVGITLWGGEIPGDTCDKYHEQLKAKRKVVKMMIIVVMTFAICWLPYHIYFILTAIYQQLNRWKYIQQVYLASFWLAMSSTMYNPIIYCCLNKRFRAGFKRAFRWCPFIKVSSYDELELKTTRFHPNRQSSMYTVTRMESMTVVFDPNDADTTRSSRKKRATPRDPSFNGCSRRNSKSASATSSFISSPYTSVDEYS
Assay: [3H]SR142801 competition binding assay
Details: membrane from HEK293 cells transiently expressing recombinant human NK3 receptor; radioligand [3H]SR142801; Ki from IC50 by Cheng-Prussoff equation
Method: [^3H]SR142801 Competition Binding Assay
hNK3 receptor binding experiment were performed using [^3H]SR142801 (Catalog No. TRK1035, specific activity: 74.0 Ci/mmol, Amersham, GE Healthcare UK limited, Buckinghamshire, UK) and membrane isolated from HEK293 cells transiently expressing recombinant human NK3 receptor. After thawing, the membrane homogenates were centrifuged at 48,000×g for 10 min at 4° C., the pellets were resuspended in the 50 mM Tris-HCl, 4 mM MnCl2, 1 μM phosphoramidon, 0.1% BSA binding buffer at pH 7.4 to a final assay concentration of 5 μg protein/well. […] At the end of the incubation, membranes were filtered onto unitfilter (96-well white microplate with bonded GF/C filter preincubated 1 h in 0.3% PEI+0.3% BSA, Packard BioScience, Meriden, Conn.) with a Filtermate 196 harvester (Packard BioScience) and washed 4 times with ice-cold 50 mM Tris-HCl, pH 7.4 buffer. Nonspecific binding was measured in the presence of 10 μM SB222200 for both radioligands. The radioactivity on the filter was counted (5 min) on a Packard Top-count microplate scintillation counter with quenching correction after addition of 45 μl of microscint 40 (Canberra Packard S. A., Zürich, Switzerland) and shaking for 1 h. Inhibition curves were fitted according to the Hill equation: y=100/(1+(x/IC50)^nH), where nH=slope factor using Excel-fit 4 software (Microsoft). IC50 values were derived from the inhibition curve and the affinity constant (Ki) values were calculated using the Cheng-Prussoff equation Ki=IC50/(1+[L]/KD) where [L] is the concentration of radioligand and KD is its dissociation constant at the receptor, derived from the saturation isotherm. All experiments were performed in duplicate and the mean±standard error (SEM) of the individual Ki values was calculated.

**Q.** Which Ki does the source give for `CS(=O)(=O)N1CCN(C(=O)N2C[C@H](CSc3ccc(C(F)(F)F)cc3)[C@@H](c3ccc(Cl)c(Cl)c3)C2)CC1` (racemic) [Example 1, (3SR,4RS)-[3-(3,4-Dichloro-phenyl)-4-(4-trifluoromethyl-phenylsulfanylmethyl)-pyrrolidin-1-yl]-(4-methanesulfonyl-piperazin-1-yl)-methanone] here?
**A.** Its Ki is 49.6 nM.

**Q.** How did the Ki turn out when `CS(=O)(=O)N1CCN(C(=O)N2C[C@H](CSc3ccc(Cl)cc3)[C@@H](c3ccc(Cl)c(Cl)c3)C2)CC1` (racemic) [Example 2] was run?
**A.** Its Ki is 45.9 nM.

**Q.** With `CS(=O)(=O)N1CCN(C(=O)N2C[C@H](CSc3ccc(C#N)cc3)[C@@H](c3ccc(Cl)c(Cl)c3)C2)CC1` (racemic) [Example 4, (3SR,4RS)-4-[4-(3,4-Dichloro-phenyl)-1-(4-methanesulfonyl-piperazine-1-carbonyl)-pyrrolidin-3-ylmethylsulfanyl]-benzonitrile] as the compound, how does the Ki read?
**A.** Its Ki is 61.7 nM.

**Q.** How did the Ki turn out when `CS(=O)(=O)N1CCN(C(=O)N2C[C@H](CSc3ccc(C(F)(F)F)cn3)[C@@H](c3ccc(Cl)c(Cl)c3)C2)CC1` (racemic) [Example 5, (3SR,4RS)-[3-(3,4-Dichloro-phenyl)-4-(5-trifluoromethyl-pyridin-2-ylsulfanylmethyl)-pyrrolidin-1-yl]-(4-methanesulfonyl-piperazin-1-yl)-methanone] was run?
**A.** The Ki was 2.4 nM.

**Q.** `CS(=O)(=O)N1CCN(C(=O)N2C[C@H](CSc3ccc(Cl)cn3)[C@@H](c3ccc(Cl)c(Cl)c3)C2)CC1` (racemic) [Example 6, (3SR,4RS)-[3-(5-Chloro-pyridin-2-ylsulfanylmethyl)-4-(3,4-dichloro-phenyl)-pyrrolidin-1-yl]-(4-methanesulfonyl-piperazin-1-yl)-methanone] was tested. Which Ki did it give?
**A.** The Ki was 2.2 nM.

**Q.** With `CS(=O)(=O)N1CCN(C(=O)N2CC(CNc3ccc(C(F)(F)F)cn3)C(c3ccc(Cl)c(Cl)c3)C2)CC1` (racemic) [Example 12, (3SR,4RS)-{3-(3,4-Dichloro-phenyl)-4-[(5-trifluoromethyl-pyridin-2-ylamino)-methyl]-pyrrolidin-1-yl}-(4-methanesulfonyl-piperazin-1-yl)-methanone] as the compound, how does the Ki read?
**A.** The Ki was 20 nM.

**Q.** For `CN(C[C@H]1CN(C(=O)N2CCN(S(C)(=O)=O)CC2)C[C@@H]1c1ccc(Cl)c(Cl)c1)c1ccc(C(F)(F)F)cn1` (racemic) [Example 15], which Ki is on record?
**A.** Its Ki is 78.8 nM.

**Q.** With `N#Cc1ccc(C(=O)N2CC(CNc3ccc(C(F)(F)F)cn3)C(c3ccc(Cl)c(Cl)c3)C2)cn1` (racemic) [Example 17, (3SR,4RS)-5-{3-(3,4-Dichloro-phenyl)-4-[(5-trifluoromethyl-pyridin-2-ylamino)-methyl]-pyrrolidine-1-carbonyl}-pyridine-2-carbonitrile] as the compound, how does the Ki read?
**A.** The Ki was 9.6 nM.

**Q.** `CC(=O)N1CCC(C(=O)N2C[C@H](CNc3ccc(C(F)(F)F)cn3)[C@@H](c3ccc(Cl)c(Cl)c3)C2)CC1` (racemic) [Example 19] was tested. Which Ki did it give?
**A.** The Ki was 10.3 nM.

**Q.** How did the Ki turn out when `Cc1cc(C(=O)N2C[C@H](CNc3ccc(C(F)(F)F)cn3)[C@@H](c3ccc(Cl)c(Cl)c3)C2)cnn1` (racemic) [Example 20] was run?
**A.** The Ki was 11 nM.

**Q.** For `CC1(C(=O)N2CCC(C(=O)N3C[C@H](CNc4ccc(C(F)(F)F)cn4)[C@@H](c4ccc(Cl)c(Cl)c4)C3)CC2)CC1` (racemic) [Example 21], which Ki is on record?
**A.** Its Ki is 8.9 nM.

**Q.** How did the Ki turn out when `O=C(c1ccnnc1)N1C[C@H](CNc2ccc(C(F)(F)F)cn2)[C@@H](c2ccc(Cl)c(Cl)c2)C1` (racemic) [Example 22] was run?
**A.** Its Ki is 98.6 nM.

**Q.** With `Cc1cc(C(=O)N2C[C@H](CNc3ccc(C(F)(F)F)cn3)[C@@H](c3ccc(Cl)c(Cl)c3)C2)c(C)nn1` (racemic) [Example 23] as the compound, how does the Ki read?
**A.** Its Ki is 10.9 nM.

**Q.** With `CC1(C(=O)N2CCC(C(=O)N3C[C@H](CNc4ncc(Cl)cn4)[C@@H](c4ccc(Cl)c(Cl)c4)C3)CC2)CC1` (racemic) [Example 24] as the compound, how does the Ki read?
**A.** Its Ki is 16.5 nM.

**Q.** `CC(=O)N1CCC(C(=O)N2C[C@H](CNc3ncc(Cl)cn3)[C@@H](c3ccc(Cl)c(Cl)c3)C2)CC1` (racemic) [Example 25] was tested. Which Ki did it give?
**A.** The Ki was 19.5 nM.

**Q.** Which Ki does the source give for `N#Cc1ccc(C(=O)N2C[C@H](CNc3ncc(Cl)cn3)[C@@H](c3ccc(Cl)c(Cl)c3)C2)cn1` (racemic) [Example 26] here?
**A.** Its Ki is 46.3 nM.

**Q.** With `Cc1cc(C(=O)N2C[C@H](CNc3ncc(Cl)cn3)[C@@H](c3ccc(Cl)c(Cl)c3)C2)cnn1` (racemic) [Example 27] as the compound, how does the Ki read?
**A.** Its Ki is 24.7 nM.

**Q.** How did the Ki turn out when `CS(=O)(=O)N1CCN(C(=O)N2C[C@H](CNc3ccc(C(F)(F)F)cc3)[C@@H](c3ccc(Cl)c(Cl)c3)C2)CC1` (racemic) [Example 28] was run?
**A.** The Ki was 58.5 nM.

**Q.** With `CS(=O)(=O)N1CCN(C(=O)N2C[C@H](CNc3ccc(Cl)cn3)[C@@H](c3ccc(Cl)c(Cl)c3)C2)CC1` (racemic) [Example 30] as the compound, how does the Ki read?
**A.** Its Ki is 36.1 nM.

**Q.** With `CS(=O)(=O)N1CCN(C(=O)N2CC(CNc3ncc(C#N)cn3)C(c3ccc(Cl)c(Cl)c3)C2)CC1` (racemic) [Example 31, (3SR,4RS)-2-{[4-(3,4-Dichloro-phenyl)-1-(4-methanesulfonyl-piperazine-1-carbonyl)-pyrrolidin-3-ylmethyl]-amino}-pyrimidine-5-carbonitrile] as the compound, how does the Ki read?
**A.** The Ki was 80 nM.

**Q.** With `CC(=O)N1CCC(C(=O)N2C[C@H](CNc3ncc(C(F)(F)F)cn3)[C@@H](c3ccc(Cl)c(Cl)c3)C2)CC1` (racemic) [Example 33] as the compound, how does the Ki read?
**A.** The Ki was 7.5 nM.

**Q.** With `CC1(C(=O)N2CCC(C(=O)N3C[C@H](CNc4ncc(C(F)(F)F)cn4)[C@@H](c4ccc(Cl)c(Cl)c4)C3)CC2)CC1` (racemic) [Example 34] as the compound, how does the Ki read?
**A.** Its Ki is 6.2 nM.

**Q.** Which Ki does the source give for `Cc1cc(C(=O)N2C[C@H](CNc3ncc(C(F)(F)F)cn3)[C@@H](c3ccc(Cl)c(Cl)c3)C2)cnn1` (racemic) [Example 35] here?
**A.** Its Ki is 9 nM.

**Q.** `CC(Nc1ccc(C#N)cn1)[C@H]1CN(C(=O)N2CCN(S(C)(=O)=O)CC2)C[C@@H]1c1ccc(Cl)c(Cl)c1` (mixture of isomers) [Example 36, (3SR,4RS) 6-{1-(RS)-[4-(3,4-Dichloro-phenyl)-1-(4-methanesulfonyl-piperazine-1-carbonyl)-pyrrolidin-3-yl]-ethylamino}-nicotinonitrile and (3SR,4RS) 6-{1-(SR)-[4-(3,4-Dichloro-phenyl)-1-(4-methanesulfonyl-piperazine-1-carbonyl)-pyrrolidin-3-yl]-ethylamino}-nicotinonitrile] was tested. Which Ki did it give?
**A.** The Ki was 68.2 nM.

**Q.** `CC(Nc1ccc(C(F)(F)F)cn1)[C@H]1CN(C(=O)N2CCN(S(C)(=O)=O)CC2)C[C@@H]1c1ccc(Cl)c(Cl)c1` (mixture of isomers) [Example 37, (3SR,4RS) {3-(3,4-Dichloro-phenyl)-4-[1-(RS)-(5-trifluoromethyl-pyridin-2-ylamino)-ethyl]-pyrrolidin-1-yl}-(4-methanesulfonyl-piperazin-1-yl)-methanone and (3SR,4RS) {3-(3,4-Dichloro-phenyl)-4-[1-(SR)-(5-trifluoromethyl-pyridin-2-ylamino)-ethyl]-pyrrolidin-1-yl}-(4-methanesulfonyl-piperazin-1-yl)-methanone] was tested. Which Ki did it give?
**A.** The Ki was 54.9 nM.

**Q.** For `C[C@@H](Nc1ccc(C(F)(F)F)cn1)[C@H]1CN(C(=O)N2CCN(S(C)(=O)=O)CC2)C[C@@H]1c1ccc(Cl)c(Cl)c1` (racemic) [Example 38, (3SR,4RS) {3-(3,4-Dichloro-phenyl)-4-[1-(RS)-(5-trifluoromethyl-pyridin-2-ylamino)-ethyl]-pyrrolidin-1-yl}-(4-methanesulfonyl-piperazin-1-yl)-methanone], which Ki is on record?
**A.** The Ki was 22.3 nM.

**Q.** For `CC1(C(=O)N2CCC(C(=O)N3CC(CNc4ccc(Cl)cn4)C(c4ccc(Cl)cc4)C3)CC2)CC1` (racemic) [Example 41, (3SR,4RS) {3-(4-Chloro-phenyl)-4-[(5-chloro-pyridin-2-ylamino)-methyl]-pyrrolidin-1-yl}-[1-(1-methyl-cyclopropanecarbonyl)-piperidin-4-yl]-methanone], which Ki is on record?
**A.** The Ki was 86.3 nM.

**Q.** How did the Ki turn out when `CC1(C(=O)N2CCC(C(=O)N3C[C@H](CNc4ncc(C(F)(F)F)cn4)[C@@H](c4ccc(F)cc4)C3)CC2)CC1` (racemic) [Example 46] was run?
**A.** Its Ki is 22.8 nM.

**Q.** `CN(C[C@H]1CN(C(=O)C2CCN(C(=O)C3(C)CC3)CC2)C[C@@H]1c1ccc(F)cc1)c1ncc(C(F)(F)F)cn1` (racemic) [Example 47] was tested. Which Ki did it give?
**A.** The Ki was 71.6 nM.

**Q.** How did the Ki turn out when `CS(=O)(=O)N1CCN(C(=O)N2C[C@H](CNc3ccc(C#N)cn3)[C@@H](c3ccc(Cl)c(Cl)c3)C2)CC1` [Example 8] was run?
**A.** Its Ki is 71.1 nM.

Source: patent publication US8318759B2, “Pyrrolidine derivatives as NK3 receptor antagonists” (Hoffmann-La Roche Inc., priority 2009, dated 2012)
